Entries after “also recorded” stand apart in the source; their conditions may differ. Counter-ions that a name gives are not always drawn. Like-named read-outs stand apart in the source and are kept apart here.
Tests used:
[1] = Clinical comparative pharmacokinetic study, 3-period cross-over, single oral doses, plasma samples; assay type: in vivo, human; conditions: for AUC(0-inf) / Cmax / Tmax: human, po, 15 mg; for AUC(0-inf): read-out: AUC0-inf Geometric Least Square Mean (GLSM); for Cmax: read-out: Cmax Geometric Least Square Mean (GLSM)
Experimental: A clinical comparative pharmacokinetic study was performed to understand the pharmacokinetic profile of metopimazine mesylate Crystal Form A in comparison to the free base of metopimazine. This study was as a 3-period, cross-over design with 3 administrations of single doses: oral formulation of metopimazine mesylate Crystal Form A fasting, oral formulation of metopimazine mesylate Crystal Form A after a high-fat breakfast, and oral formulation of metopimazine free base fasting, with a wash-out period of 48 hours between each administration. Fifteen subjects were enrolled and received each of the 3 treatment. Plasma samples from each subject were analyzed for various pharmacokinetic parameters. Mixed model repeated measures (MMRM) analysis was performed on each sample.
The second objective of this study was to compare the pharmacokinetics of metopimazine mesylate Crystal Form A administered as an oral administration of a single dose of 15 mg orally in 15 human subjects either in a fasted state or after a high fat breakfast. Plasma samples from each subject were analyzed for various pharmacokinetic parameters. […] Both Cmax and AUC are well within the 90% confidence interval.

[2] = administration before and after a high fat breakfast; cited from earlier work
[3] = single oral dose 15 mg, n = 15, fasted, plasma
[4] = 15 mg oral, n = 15, 90% confidence interval
[5] = 15 mg oral, n = 15, 90% confidence interval, *Bioequivalence
[6] = plasma, 15 mg oral, n = 15, fasted
[7] = plasma, 15 mg oral, n = 15, fed high fat breakfast (1030 kcal, 16% protein, 61% fat, 23% carbohydrate)

| Structure (SMILES) | Tmax, Median [1, 3] | Tmax, Min [1, 3] | Reduction in AUC (food effect) [2] | Reduction in Cmax (food effect) [2] | Reduction in Cmax when administered with food ([1]; 15 mg oral, high fat breakfast vs fasted) | Change in AUC, high fat breakfast vs fasted ([1]; 15 mg oral, n = 15) | Geometric mean difference in Cmax, high fat breakfast vs fasted ([1]; 15 mg oral, n = 15) | Cmax ratio fasted vs fed, Lower CI % [1, 4] | Cmax ratio fasted vs fed, Upper CI % [1, 4] | AUC0-inf ratio fasted vs fed, Lower CI % [1, 5] | AUC0-inf ratio fasted vs fed, Upper CI % [1, 5] | AUC(0-inf) [1, 6] | Cmax [1, 6] | AUC(0-inf) [1, 7] | Cmax [1, 7] | Tmax ([1]; plasma, single oral dose 15 mg, n = 15, fasted, plasma, read-out: Tmax, Mean) | Tmax ([1]; plasma, single oral dose 15 mg, n = 15, fasted, plasma, read-out: Tmax, Median) |
| --- | --- | --- | --- | --- | --- | --- | --- | --- | --- | --- | --- | --- | --- | --- | --- | --- | --- |
| CS(=O)(=O)c1ccc2c(c1)N(CCCN1CCC(C(N)=O)CC1)c1ccccc1S2 [Metopimazine free base, 1-(3-(2-(methylsulfonyl)-10H-phenothiazin-10-yl)propyl)piperidine-4-carboxamide, reference compound] | 60 min | 30 min | 23% | 58% |  |  |  |  |  |  |  |  |  |  |  |  |  |
| CS(=O)(=O)c1ccc2c(c1)N(CCCN1CCC(C(N)=O)CC1)c1ccccc1S2 [Metopimazine mesylate Crystal Form A, 1-(3-(2-(methylsulfonyl)-10H-phenothiazin-10-yl)propyl)piperidine-4-carboxamide methanesulfonic acid] |  |  |  |  | approximately 15% | not statistical difference; also recorded: no notable change | slightly but significantly lower | 63.82% | 110.75% | 86.00* % | 101.93* % | 64 ng·h/mL | 18.2 ng/mL | 59.9 ng·h/mL | 15.3 ng/mL | 52.2 min | 45 min |

Source: patent US10836757B1, “Polymorphic forms of metopimazine” (Neurogastrx, Inc., priority 2020, dated 2020)
